According to US6685932B1, “Coiled-coil dimer derived antagonists of 4-helix bundle cytokines, design and uses thereof” (Europaisches Laboratorium Molekularbiologie, priority 1997, dated 2004):
Like-named read-outs stand apart in the source and are kept apart here. Positions of bridges follow the written chain, without caps; N, C: chain ends. Chains are numbered I, II in the order given.

What was measured:
[1] = biological target: T1, IL-4Rα (extracellular domain, IL4BP) (Homo sapiens, UniProt P24394, Q231C); assay: biosensor-based binding experiments (BIA2000 system) on immobilised IL-4 binding protein
T1 sequence (P24394 26-232 Q231C): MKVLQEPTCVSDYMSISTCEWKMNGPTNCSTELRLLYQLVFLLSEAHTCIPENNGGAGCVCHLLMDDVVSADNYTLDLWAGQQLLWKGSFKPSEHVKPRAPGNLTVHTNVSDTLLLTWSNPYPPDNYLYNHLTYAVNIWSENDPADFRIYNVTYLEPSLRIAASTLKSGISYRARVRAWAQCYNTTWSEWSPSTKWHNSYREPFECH
Text: All the peptides were synthesized by solid phase methods, aminated on the C-terminus and acetylated on the N-terminus. The activity of the peptides was investigated by biosensor-based binding experiments using the BIA2000 system (Pharmacia Biosensor), at room temperature. […] An extensive study of the role of disulfide bridges in the stability of coiled-coil structures and proteins in general is available in the literature (86-88).

[2] = temperature-induced denaturation followed by Circular Dichroism; type: physicochemical; conditions: for stability / midpoint transition temperature (Tm), in words: CD at 222 nm
Text: Upon fitting the experimental data, the midpoint transition temperature (Tm) can be obtained.

Substance: I: Ac-RMKQLEKKVERCLKRLYRNEWEVIRLKKLVG-NH2 / II: Ac-RMKQLEKKVERCLKRLYRNEWEVIRLKKLVG-NH2 (disulfide I:12-II:12) [Model 12CNMAR-IL4]
- binding affinity relative to parent peptide ([1]; relative to peptide bearing cysteine at position 12): binding affinity is not affected
- stability / midpoint transition temperature (Tm), in words [2]: significant drop in the stability

Substance: RMKQLEDKVEELLSKNYRLENRVARLEKLVG [Model 1]
- Kd ([1]; room temperature (25° C.), immobilised biotinylated IL4BP): 105597

Substance: Ac-RMKQLEKKVERLLKRNYRLEWEVIRLKKLVG-NH2 [MAR-IL-4]
- Kd [1]: 26 µM
- stability / midpoint transition temperature (Tm), in words [2]: cooperative temperature induced transition characteristic of a folded protein
- temperature at which the peptide starts losing its structure ([2]; low peptide concentrations used to measure binding): 25 °C

Substance: I: Ac-RMKQLEKKVERCLKRNYRLEWEVIRLKKLVG-NH2 / II: Ac-RMKQLEKKVERCLKRNYRLEWEVIRLKKLVG-NH2 (disulfide I:12-II:12) [Model 12CMAR-IL4]
- increase in the binding affinity to IL-4Rα ([1]; relative to MAR-IL4): 5 fold
